Reference: patent US20250059170A1, “SOLID STATE FORMS OF AN FGFR INHIBITOR” (Kinnate Biopharma Inc., priority 2021, published 2025)
Values after ≈ are worked out from the molar mass of the structure shown. Blank lines part the entries; values can stand above or below the compound they belong to.

How the values were obtained:
Type in all cases: physicochemical
[1] = Preliminary solubility in 14 solvents by solvent addition with visual assessment; settings: thermodynamic from solid, RT
Description: Preliminary solubility of Compound 1 (Form V) was estimated in 14 selected solvents at RT using solvent addition method via visual assessment of samples.

[2] = Water activity studies in IPA/water
Experimental: Water activity studies of Form I, II and V were also performed in IPA/water with different water content at RT and 50° C.

[3] = Solubility testing of Form II in SGF, water, FaSSIF and FeSSIF; settings: for solubility: thermodynamic from solid
Experimental: Nine crystal forms were identified, assigned as Form I-IX, including a mono-hydrate (Form I) four anhydrates (Form II, III, V and IX), a hemihydrate, (Form IV) and three solvates (Form VI, VII and VIII). […] The three solvates (Form VI, VII, and VIII) converted to Form II after desolvation and recrystallization during heating by DSC. Form II was evaluated by DVS, solubility and stability testing. […] The purity decreased by about 0.3% at 60° C. for 3 days and 7 days, mainly due to the increase of impurities at RRT 0.9, 0.91 and 1.07.
(§1) HPLC analysis was performed with an Agilent HPLC 1260 series instrument.

[4] = Solid stability of Form II
Experimental: as §1
The solid stability of Form II was evaluated at 60° C. for 7 days, 40° C./75% RH for 6 days, and RT/92.5% RH for 2 days, respectively. […] The purity of Compound 1 decreased by about 0.3% at 60° C. for 3 days and 7 days, mainly due to the increase of the impurities at RRT 0.9, 0.91 and 1.07.

[5] = Dynamic Vapor Sorption (DVS)
Experimental: Moisture sorption/desorption data was collected on a DVS Intrinsic PLUS (SMS, UK). The sample was placed into a tared sample chamber and automatically weighed. The sample was dried at 40° C./0% RH until the dm/dt was less than 0.002% and cooled to 25° C.

[6] = Competitive slurry inter-conversion studies; settings: competitive slurries in non-aqueous solvents, RT and 50° C.
Experimental: Competitive slurries of Form I, II and V were performed in IPAC at RT and 50° C. […] A competitive slurry of Form III and Form II was conducted in IPA and IPAC at RT and 50° C., respectively, and all mixtures converted to Form II after 1 day. A competitive slurry of Form II and IX was also performed in IPA and IPAC at RT and 50° C. […] In IPA at RT and IPA and EA at RT and 50° C., all mixtures tended to convert to Form II.

[7] = Solid form characterization summary (hygroscopicity comment); settings: comment on solid form
Description: A summary of the characterization data for the solid forms of Compound 1 identified is shown below in Table 15.

Structure (SMILES): C=CC(=O)N1C[C@@H](n2nc(C#Cc3c(F)cc4c(ncn4C4CC4)c3F)c(C(N)=O)c2NC)C[C@@H]1COC [Compound 1, 1-((3S,5R)-1-acryloyl-5-(methoxymethyl)pyrrolidin-3-yl)-3-((1-cyclopropyl-4,6-difluoro-1H-benzo[d]imidazol-5-yl)ethynyl)-5-(methylamino)-1H-pyrazole-4-carboxamide]
solubility ([1]; organic solvent or mixture, ACN, Form V material, read-out: Solubility): 27000 to 36000 µg/mL (≈ 51.6 to 68.8 mM) | solubility ([1]; organic solvent or mixture, Acetone, Form V material, read-out: Solubility): ~34000 µg/mL (≈ 64.9 mM) | solubility ([1]; organic solvent or mixture, EA, Form V material, read-out: Solubility): ~8000 µg/mL (≈ 15.3 mM) | solubility ([1]; organic solvent or mixture, EtOH, Form V material, read-out: Solubility): ~21000 µg/mL (≈ 40.1 mM) | solubility ([1]; organic solvent or mixture, IPA, Form V material, read-out: Solubility): ~5000 µg/mL (≈ 9.55 mM) | solubility ([1]; organic solvent or mixture, IPAC, Form V material, read-out: Solubility): ~4000 µg/mL (≈ 7.64 mM) | solubility ([1]; organic solvent or mixture, Isobutanol, Form V material, read-out: Solubility): ~6000 µg/mL (≈ 11.5 mM) | solubility ([1]; organic solvent or mixture, MEK, Form V material, read-out: Solubility): ~31000 µg/mL (≈ 59.2 mM) | solubility ([1]; organic solvent or mixture, MTBE, Form V material, read-out: Solubility): < 750 µg/mL | solubility ([1]; organic solvent or mixture, MeOH, Form V material, read-out: Solubility): > 106000 µg/mL | solubility ([1]; organic solvent or mixture, THF, Form V material, read-out: Solubility): > 100000 µg/mL | solubility ([1]; organic solvent or mixture, Toluene, Form V material, read-out: Solubility): < 1000 µg/mL | solubility ([1]; organic solvent or mixture, n-Heptane, Form V material, read-out: Solubility): < 1000 µg/mL | solubility ([1]; Water, Form V material, read-out: Solubility): < 1000 µg/mL

Structure (SMILES): C=CC(=O)N1C[C@@H](n2nc(C#Cc3c(F)cc4c(ncn4C4CC4)c3F)c(C(N)=O)c2NC)C[C@@H]1COC [Form I, 1-((3S,5R)-1-acryloyl-5-(methoxymethyl)pyrrolidin-3-yl)-3-((1-cyclopropyl-4,6-difluoro-1H-benzo[d]imidazol-5-yl)ethynyl)-5-(methylamino)-1H-pyrazole-4-carboxamide]
Water activity (aw) at which Form I is more stable than Form II ([2]; 50° C.): ≥ 0.75 | Water activity (aw) at which Form I is more stable than Form II ([2]; RT): ≥ 0.55

Structure (SMILES): C=CC(=O)N1C[C@@H](n2nc(C#Cc3c(F)cc4c(ncn4C4CC4)c3F)c(C(N)=O)c2NC)C[C@@H]1COC [Form II, 1-((3S,5R)-1-acryloyl-5-(methoxymethyl)pyrrolidin-3-yl)-3-((1-cyclopropyl-4,6-difluoro-1H-benzo[d]imidazol-5-yl)ethynyl)-5-(methylamino)-1H-pyrazole-4-carboxamide]
solubility ([3]; SGF, simulated gastric fluid): 800 µg/mL (≈ 1.53 mM) | Solubility in FeSSIF relative to FaSSIF ([3]; at 24 h): about thirty times higher | solubility ([3]; water): ~3 µg/mL (≈ 0.00573 mM) | Solid stability ([4]; 40° C./75% RH for 6 days): physically and chemically stable | Purity decrease ([4]; 60° C. for 3 days and 7 days): about 0.3% | Solid stability ([4]; RT/92.5% RH for 2 days): physically stable | Water activity (aw) at which the form is physically stable ([2]; 50° C.): ≤ 0.55 | Water activity (aw) at which the form is physically stable ([2]; RT): ≤ 0.35 | Hygroscopicity ([5]; DVS): slightly hygroscopic | Crystal form after DVS testing ([5]; after DVS testing): remained unchanged | Relative stability of forms [6]: most stable form in non-aqueous solvents

Next, values leading:

Hygroscopicity [7]: Hygroscopic
Structure (SMILES): C=CC(=O)N1C[C@@H](n2nc(C#Cc3c(F)cc4c(ncn4C4CC4)c3F)c(C(N)=O)c2NC)C[C@@H]1COC [Form III, 1-((3S,5R)-1-acryloyl-5-(methoxymethyl)pyrrolidin-3-yl)-3-((1-cyclopropyl-4,6-difluoro-1H-benzo[d]imidazol-5-yl)ethynyl)-5-(methylamino)-1H-pyrazole-4-carboxamide]

solubility ([1]; organic solvent or mixture, MeOH, THF, acetone, MEK and ACN, read-out: Solubility (relatively high)): > 20000 µg/mL | solubility ([1]; non-polar solvents and water, read-out: Solubility (practically insoluble)): < 1000 µg/mL
Structure (SMILES): C=CC(=O)N1C[C@@H](n2nc(C#Cc3c(F)cc4c(ncn4C4CC4)c3F)c(C(N)=O)c2NC)C[C@@H]1COC [Form V, 1-((3S,5R)-1-acryloyl-5-(methoxymethyl)pyrrolidin-3-yl)-3-((1-cyclopropyl-4,6-difluoro-1H-benzo[d]imidazol-5-yl)ethynyl)-5-(methylamino)-1H-pyrazole-4-carboxamide]
